Data set [1] can be described thus: Metabolic stability in liver microsomes, human. The settings on record: human, microsomes, pH 7.4. The procedure:
(§1) The solution B is slowly dropped into solution A, and the pH is adjusted to 7.40±0.05.
(§2) • Control drug: 4 μL Verapamil solution (10 mM) is added with 96 μL DMSO and diluted to 400 μM; • Compound to be tested: 4 μL compound to be tested (10 mM) is added with 96 μL normal saline and diluted to 400 μM.
(§3) The microsomes are stored in the refrigerator at −80° C., thawed at room temperature after being taken out, and mixed gently.
(§4) […] PBS (100 mm, pH=7.4) solution is added to the negative sample. The solution is put into water bath at 37° C. and pre-incubated for 10 minutes; • B) After incubation, 2 μL reference drug or compound to be tested (400 μM) are added into each well to start the reaction.

A short description of data set [2]: Metabolic stability in liver microsomes, dog. The settings on record: dog, microsomes, pH 7.4. As for the experimental part:
as §1, §2, §3, §4
Background: Microsomes from liver hold many membrane-bound enzymes, among them those of drug oxidation.

Data set [3] in a line: Metabolic stability in liver microsomes, rat. As to conditions: rat, microsomes, pH 7.4. As for the experimental part:
as §1, §2, §3, §4

Data set [4] is described as follows: Metabolic stability in liver microsomes, mouse. The settings on record: mouse, microsomes, pH 7.4. The procedure:
as §1, §2, §3, §4

Data set [5] deals with T1, hERG potassium channel (Homo sapiens, UniProt Q12809). The settings on record: read-out: hERG IC50; J Med Chem.2013 24; 56 (20): 8019-31; cited from earlier work. (In general: The hERG channel carries a current that helps repolarise heart muscle cells.)
The target of data set [6] is T1, hERG potassium channel. The data set is described as follows: hERG potassium channel whole-cell patch clamp (HEK293). The class given is cell-based. Also noted: expressed in transfected cells; host or cells: HEK293 cell line. The text has this: The rapidly activated potassium channel encoded by human ether-a-go-go-related gene (hERG) is an important ion channel involved in the formation of phase 3 repolarization of myocardial action potential. […] Drug-induced delayed ventricular repolarization may cause fatal arrhythmia-torsade de pointes in some cases. According to statistics, about 25-40% of the lead compounds show different degrees of hERG-related toxicity, and many drugs are withdrawn from the market because they may lead to the risk of QT interval extension. At present, National Medical Products Administration also requires hERG/IKr safety evaluation data before clinical trial application (IND) of new drugs under study. • 1. Whole-cell patch clamp technique is used to study the inhibitory effect of compounds on hERG potassium channels: • 1) the compound to be tested is stored with physiological saline prepared into 10 mM liquid. The test stock solution is diluted with physiological saline into 3 mM, 1 mM and 0.3 mM diluents in turn. […] The old culture medium removed and is washed once with PBS, then added with 1 mL TrypLE™ Express solution and incubated at 37° C. for about 0.5 minutes. When the cells are detached from the bottom of the dish, about 5 ml complete medium preheated is added at 37° C. The cell suspension is gently blown with a straw to separate the aggregated cells. The cell suspension is transferred to a sterile centrifuge tube and centrifuged at 1000 rpm for 5 minutes to collect cells. […] The clamping voltage is depolarized from −80 mV to −50 mV for 0.5 seconds (as leakage current detection), then stepped to 30 mV for 2.5 seconds, and then quickly recovered to −50 mV for 4 seconds, which can excite the tail current of hERG channel. Data are collected repeatedly every 10s to observe the effect of drugs on hERG tail current. 0.5 seconds-50 mV stimulation is used as leakage current detection. The test data are collected by IPA amplifier (Sutter Instrument) and stored in SutterPatch software.
Capillary glass tube is drawn into recording electrode by microelectrode drawing instrument. Under the inverted microscope, the microelectrode manipulator is operated to contact the recording electrode with the cell, and negative pressure suction is given to form a GΩ seal. After the GΩ seal is formed, rapid capacitance compensation is carried out, and then negative pressure is continuously applied to break the cell membrane, forming a whole cell recording mode. Then the slow capacitance is compensated and the film capacitance and series resistance are recorded. No leakage compensation is given.
When the hERG current recorded in the whole cell is stable, the drug is administered, and the next concentration is detected after each drug concentration acts for 5 minutes (or the current is stable), and multiple concentrations are detected for each test compound. The cover glass covered with cells is placed in the recording bath in an inverted microscope, and the test compound and the external liquid containing no compound flowed through the recording bath from low concentration to high concentration by gravity perfusion method, so as to act on the cells, and liquid exchange is carried out by using a vacuum pump during recording. The current detected by each cell in the external fluid without compounds is used as its own control group.
At least two cells are used to detect each concentration independently and repeatedly twice. All electrophysiological tests are conducted at room temperature.
Firstly, the current after each drug concentration and the blank control current are standardized
[formula] followed by the calculation of the inhibition rate
[formula] corresponding to each drug concentration, the average and standard deviation for each concentration, and the semi-inhibition concentration of each compound with the following equation: […]
The dose-dependent effect is nonlinear fitted by the above equation, and IC50 is semi-inhibitory concentration.

Another data set addresses CYP 2C9 (Homo sapiens, UniProt P11712). Description: Inhibition of cytochrome P450 enzyme in human liver microsomes, CYP 2C9.
The target of the next data set is CYP 2D6 (Homo sapiens, UniProt P10635). The data set is described as follows: Inhibition of cytochrome P450 enzyme in human liver microsomes, CYP 2D6.
In another data set the target is CYP 2C19 (Homo sapiens, UniProt P33261). The data set is described as follows: Inhibition of cytochrome P450 enzyme in human liver microsomes, CYP 2C19.

“Also recorded” adds a separate entry of the source. Like-named read-outs stand apart in the source and are kept apart here.

T1 sequence (Q12809 whole entry): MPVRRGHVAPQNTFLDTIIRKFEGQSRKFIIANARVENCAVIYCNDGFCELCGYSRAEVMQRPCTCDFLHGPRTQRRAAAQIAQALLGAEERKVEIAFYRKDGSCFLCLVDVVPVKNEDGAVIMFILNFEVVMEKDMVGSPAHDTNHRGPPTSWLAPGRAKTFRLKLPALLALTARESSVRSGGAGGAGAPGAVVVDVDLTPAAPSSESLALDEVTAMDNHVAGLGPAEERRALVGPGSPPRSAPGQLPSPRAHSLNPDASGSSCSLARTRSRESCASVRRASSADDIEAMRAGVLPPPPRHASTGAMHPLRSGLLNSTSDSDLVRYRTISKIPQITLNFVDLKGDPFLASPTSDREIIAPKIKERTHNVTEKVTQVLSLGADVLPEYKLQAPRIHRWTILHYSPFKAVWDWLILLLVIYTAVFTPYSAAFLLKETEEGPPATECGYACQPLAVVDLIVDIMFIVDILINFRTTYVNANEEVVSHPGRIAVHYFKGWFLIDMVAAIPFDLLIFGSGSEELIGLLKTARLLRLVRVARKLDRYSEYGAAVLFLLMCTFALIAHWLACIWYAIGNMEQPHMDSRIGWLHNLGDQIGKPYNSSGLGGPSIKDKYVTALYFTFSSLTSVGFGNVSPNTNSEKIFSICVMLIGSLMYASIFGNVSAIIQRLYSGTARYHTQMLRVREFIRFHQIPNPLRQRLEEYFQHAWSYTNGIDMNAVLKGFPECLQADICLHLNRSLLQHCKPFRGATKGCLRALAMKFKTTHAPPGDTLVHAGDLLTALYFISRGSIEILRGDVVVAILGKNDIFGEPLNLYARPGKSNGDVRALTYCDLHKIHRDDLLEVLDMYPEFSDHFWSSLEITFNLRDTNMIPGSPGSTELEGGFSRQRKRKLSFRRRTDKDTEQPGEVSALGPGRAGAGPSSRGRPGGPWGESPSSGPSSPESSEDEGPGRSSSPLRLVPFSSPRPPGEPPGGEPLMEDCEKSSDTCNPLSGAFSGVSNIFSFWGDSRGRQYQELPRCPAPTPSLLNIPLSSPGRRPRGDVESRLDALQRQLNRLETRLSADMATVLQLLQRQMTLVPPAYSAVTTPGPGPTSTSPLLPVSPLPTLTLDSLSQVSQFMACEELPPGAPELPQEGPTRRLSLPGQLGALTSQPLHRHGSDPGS
CYP 2C9, sequence (P11712 whole entry): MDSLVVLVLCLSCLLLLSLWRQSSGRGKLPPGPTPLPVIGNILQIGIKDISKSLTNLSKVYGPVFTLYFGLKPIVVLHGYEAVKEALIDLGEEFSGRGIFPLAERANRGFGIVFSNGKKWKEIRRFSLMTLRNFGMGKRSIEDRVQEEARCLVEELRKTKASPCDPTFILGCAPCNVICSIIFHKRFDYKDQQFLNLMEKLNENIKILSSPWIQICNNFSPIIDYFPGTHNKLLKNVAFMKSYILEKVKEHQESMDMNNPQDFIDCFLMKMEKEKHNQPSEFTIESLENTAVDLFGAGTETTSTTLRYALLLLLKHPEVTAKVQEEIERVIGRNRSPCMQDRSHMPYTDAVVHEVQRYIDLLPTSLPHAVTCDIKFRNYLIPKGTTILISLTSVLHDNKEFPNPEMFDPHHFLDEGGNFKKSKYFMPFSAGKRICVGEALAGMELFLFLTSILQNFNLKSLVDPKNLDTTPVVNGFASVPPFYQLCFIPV
CYP 2C19, sequence (P33261 whole entry): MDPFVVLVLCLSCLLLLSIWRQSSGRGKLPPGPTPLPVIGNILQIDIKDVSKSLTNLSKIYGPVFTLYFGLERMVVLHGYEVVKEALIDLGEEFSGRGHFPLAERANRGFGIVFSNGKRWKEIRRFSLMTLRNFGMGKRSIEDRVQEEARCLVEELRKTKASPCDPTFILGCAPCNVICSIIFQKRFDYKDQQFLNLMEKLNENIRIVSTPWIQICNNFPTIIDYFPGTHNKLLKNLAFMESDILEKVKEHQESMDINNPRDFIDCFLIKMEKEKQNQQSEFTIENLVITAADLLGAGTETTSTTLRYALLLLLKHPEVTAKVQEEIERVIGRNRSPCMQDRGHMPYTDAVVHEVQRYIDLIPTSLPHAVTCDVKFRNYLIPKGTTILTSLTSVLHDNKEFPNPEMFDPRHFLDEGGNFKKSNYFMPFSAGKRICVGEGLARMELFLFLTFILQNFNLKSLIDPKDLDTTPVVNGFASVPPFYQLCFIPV
CYP 2D6, sequence (P10635 whole entry): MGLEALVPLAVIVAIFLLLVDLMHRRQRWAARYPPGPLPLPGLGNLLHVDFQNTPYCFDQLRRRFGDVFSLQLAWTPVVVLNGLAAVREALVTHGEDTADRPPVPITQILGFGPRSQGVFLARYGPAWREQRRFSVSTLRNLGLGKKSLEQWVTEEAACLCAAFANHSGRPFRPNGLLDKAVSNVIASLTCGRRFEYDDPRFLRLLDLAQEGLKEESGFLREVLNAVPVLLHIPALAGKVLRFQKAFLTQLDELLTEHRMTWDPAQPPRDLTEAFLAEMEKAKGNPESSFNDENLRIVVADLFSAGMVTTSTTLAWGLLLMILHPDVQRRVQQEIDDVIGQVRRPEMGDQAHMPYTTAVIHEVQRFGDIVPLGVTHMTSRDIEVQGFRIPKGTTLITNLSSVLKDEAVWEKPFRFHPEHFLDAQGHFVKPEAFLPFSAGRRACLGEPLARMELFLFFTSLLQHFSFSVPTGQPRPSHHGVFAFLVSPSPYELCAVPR

The term half-life denotes the time in which the quantity being followed falls by half. The term microsomal CLint denotes the capacity of the preparation to metabolise the compound, expressed as a volume cleared per time. A lower microsomal CLint goes with greater metabolic stability. In general, IC50 refers to the point on the concentration scale where inhibition reaches its midpoint. For the compound `COc1ccsc1CNCC[C@@]1(c2ccccn2)CCOC2(CCCC2)C1` [TRV-130, reference compound], the half-life at 2 μM is 4.08 min in data set [1], 2.22 min in data set [2], 1.61 min in data set [3] and 1.67 min in data set [4]. Also, the microsomal CLint at 2 μM in data set [1] came out at 340 µL/min/mg; in data set [2], 624 µL/min/mg; in data set [3], 863 µL/min/mg; in data set [4], 831 µL/min/mg. The IC50 on hERG potassium channel [5] is 6.2 µM; on hERG potassium channel [6], 6.17 µM; against CYP 2C9 it was greater than 50 µM; against CYP 2D6, 7.17 µM; on CYP 2C19, greater than 50 µM. Moreover, the “hERG inhibition grade” value at hERG potassium channel [6] is “moderate inhibitory effects on hERG; also recorded: μM(Moderate intensity inhibition)”.

Values taken from patent publication US12509421B2, “Preparation and application of deuterated 4-phenyl-4-piperidinols” (priority 2022, dated 2025).
